What was measured:
bearded sprangletop = assay: Test D flooded paddy test; format: in vivo, Leptochloa fascicularis; conditions: 21 days, scale 0 to 100
Excerpt: (§1) Three plastic pots (ca. 16-cm diameter) per rate were partially filled with sterilized Tama silt loam soil comprising a 35:50:15 ratio of sand, silt and clay and 2.6% organic matter. Separate plantings for each of the three pots were as follows. Seeds from the U.S. of ducksalad (Heteranthera limosa (Sw.) Willd.), smallflower umbrella sedge (Cyperus difformis L.) and purple redstem (Ammannia coccinea Rottb.), were planted into one 16-cm pot for each rate. Seeds from the U.S. of rice flatsedge (Cyperus iria L.), bearded sprangletop (Leptochloa fascicularis (Lam.) Gray), one stand of 9 or 10 water seeded rice seedlings (Oryza sativa L. cv. ‘Japonica—M202’), and one stand of 6 transplanted rice seedlings (Oryza sativa L. cv. ‘Japonica—M202’) were planted into one 16-cm pot for each rate. Seeds from the U.S. of barnyardgrass (Echinochloa crus-galli (L.) Beauv.), late watergrass (Echinochloa oryzicola Vasinger), early watergrass (Echinochloa oryzoides (Ard.) Fritsch) and junglerice (Echinochloa colona (L.) Link) were planted into one 16-cm pot for each rate. Plantings were sequential so that crop and weed species were at the 2.0 to 2.5-leaf stage at time of treatment.
(§2) Potted plants were grown in a greenhouse with day/night temperature settings of 29.5/26.7° C., and supplemental balanced lighting was provided to maintain a 16-hour photoperiod. Test pots were maintained in the greenhouse until test completion.
(§3) At time of treatment, test pots were flooded to 3 cm above the soil surface, treated by application of test compounds directly to the paddy water, and then maintained at that water depth for the duration of the test. Effects of treatments on rice and weeds were visually evaluated by comparison to untreated controls after 21 days. Plant response ratings are reported on a 0 to 100 scale; where 0 is no effect and 100 is complete control. A dash (-) response means no test result.

[1] = test system: smallflower umbrella sedge; assay: Test D flooded paddy test; format: in vivo, Cyperus difformis; conditions: 21 days, scale 0 to 100
Excerpt: as §1, §2, §3

purple redstem = assay: Test D flooded paddy test; format: in vivo, Ammannia coccinea; conditions: 21 days, scale 0 to 100
Excerpt: as §1, §2, §3

[2] = test system: water seeded rice seedlings; assay: Test D flooded paddy test; format: in vivo, Oryza sativa; conditions: 21 days, scale 0 to 100
late watergrass = assay: Test D flooded paddy test; format: in vivo, Echinochloa oryzicola; conditions: 21 days, scale 0 to 100
Excerpt: as §1, §2, §3

early watergrass = assay: Test D flooded paddy test; format: in vivo, Echinochloa oryzoides; conditions: 21 days, scale 0 to 100
Excerpt: as §1, §2, §3

wheat cv. Retical = assay: Test H safening on wheat by naphthalic anhydride seed treatment, pre-/postemergence; format: in vivo, Triticum aestivum; design: key to Response of wheat, Without naphthalic anhydride seed treatment: 0 = no effect, 100 = complete plant death, vs untreated control; conditions: preemergence
Description: This test evaluated the safening of compounds of the invention on wheat (Triticum aestivumL.) cv. ‘Retical’ by seed treatment with naphthalic anhydride. Some of the wheat seed was treated with napthalic anhydride as a 1% by weight seed dressing. The wheat seed were planted in pots containing pasteurized Sassafras sandy loam soil. For postemergence testing the plants were grown 8 days to the 2-leaf stage at time of treatment. Preemergence treatments were applied the same day that the seeds were planted. Treatments were applied by spraying the test compounds formulated in a non-phytotoxic solvent mixture, using a flat fan nozzle and a spray volume of 280 L/ha. The preemergence treatments were triply replicated and the results subsequently averaged. The pots were placed on a growth chamber bench using a complete randomized block design for the preemergence test except for the first replicate, which was unrandomized. The plants were grown in the growth chamber and watered as needed with a dilute nutrient solution containing 200 ppm of N. Illumination was provided by fluorescent lamps giving 200-300 μE/m^2/S of photosynthetically active radiation over a 14-hour photoperiod. The temperature was maintained at 23±2° C. during the day and 17±2° C. at night. The effects of the treatments were rated 25 days after preemergence treatment and 14 days after postemergence treatment. The plant response was visually rated in comparison to untreated controls using a scale of 0 to 100, with 0 representing no effect and 100 representing complete plant death. The results for the compounds tested preemergence are listed in Table H1, and the results for the compounds tested postemergence are listed in Table H2.

CCn1nc(C(C)(C)C)cc1C(=O)Nc1cc(C(=O)NCC2CC2)ccn1 [Compound 155]
Plant response rating, Sprangletop, Bearded (bearded sprangletop; 32 g ai/ha): 30 | Plant response rating, Sprangletop, Bearded (bearded sprangletop; 64 g ai/ha): 30 | Plant response rating, Sprangletop, Bearded (bearded sprangletop; 125 g ai/ha): 30 | Plant response rating, Sprangletop, Bearded (bearded sprangletop; 250 g ai/ha): 40 | Plant response rating, Sprangletop, Bearded (bearded sprangletop; 500 g ai/ha): 75 | Plant response rating, Sedge, Umbrella ([1]; 32 g ai/ha): 30 | Plant response rating, Sedge, Umbrella ([1]; 64 g ai/ha): 65 | Plant response rating, Sedge, Umbrella ([1]; 125 g ai/ha): 75 | Plant response rating, Sedge, Umbrella ([1]; 250 g ai/ha): 75 | Plant response rating, Sedge, Umbrella ([1]; 500 g ai/ha): 80 | Plant response rating, Redstem (purple redstem; 32 g ai/ha): 0 | Plant response rating, Redstem (purple redstem; 64 g ai/ha): 0 | Plant response rating, Redstem (purple redstem; 125 g ai/ha): 0 | Plant response rating, Redstem (purple redstem; 250 g ai/ha): 95 | Plant response rating, Redstem (purple redstem; 500 g ai/ha): 95 | Plant response rating, Rice, Water Seeded ([2]; 32 g ai/ha): 0 | Plant response rating, Rice, Water Seeded ([2]; 64 g ai/ha): 0 | Plant response rating, Rice, Water Seeded ([2]; 125 g ai/ha): 25 | Plant response rating, Rice, Water Seeded ([2]; 250 g ai/ha): 35 | Plant response rating, Rice, Water Seeded ([2]; 500 g ai/ha): 40 | Plant response rating, Watergrass, Late (late watergrass; 32 g ai/ha): 0 | Plant response rating, Watergrass, Late (late watergrass; 64 g ai/ha): 0 | Plant response rating, Watergrass, Late (late watergrass; 125 g ai/ha): 20 | Plant response rating, Watergrass, Late (late watergrass; 250 g ai/ha): 30 | Plant response rating, Watergrass, Late (late watergrass; 500 g ai/ha): 60 | Plant response rating, Watergrass, Early (early watergrass; 32 g ai/ha): 0 | Plant response rating, Watergrass, Early (early watergrass; 64 g ai/ha): 0 | Plant response rating, Watergrass, Early (early watergrass; 125 g ai/ha): 25 | Plant response rating, Watergrass, Early (early watergrass; 250 g ai/ha): 35 | Plant response rating, Watergrass, Early (early watergrass; 500 g ai/ha): 70

CCn1nc(C(C)(C)C)cc1C(=O)Nc1cc(C(=O)N(C)C)ccn1 [Compound 156, 2-[[[3-(1,1-dimethylethyl)-1-ethyl-1H-pyrazol-5-yl]carbonyl]amino]-N,N-dimethyl-4-pyridinecarboxamide]
Response of wheat, With 1% naphthalic anhydride seed treatment (wheat cv. Retical; 62 g a.i./ha): 7 | Response of wheat, Without naphthalic anhydride seed treatment (wheat cv. Retical; 62 g a.i./ha): 67 | Response of wheat, With 1% naphthalic anhydride seed treatment (wheat cv. Retical; 125 g a.i./ha): 70 | Response of wheat, Without naphthalic anhydride seed treatment (wheat cv. Retical; 125 g a.i./ha): 100 | Response of wheat, With 1% naphthalic anhydride seed treatment (wheat cv. Retical; 250 g a.i./ha): 85 | Response of wheat, Without naphthalic anhydride seed treatment (wheat cv. Retical; 250 g a.i./ha): 100 | Response of wheat, With 1% naphthalic anhydride seed treatment (wheat cv. Retical; 500 g a.i./ha): 99 | Response of wheat, Without naphthalic anhydride seed treatment (wheat cv. Retical; 500 g a.i./ha): 100

Reference: patent publication US20060069132A1, “Azolecarboxamide herbicides” (priority 2004, published 2006)
